Laboratory results reported in patent publication US20240165123A1, “USE OF A COMPOUND CONTAINING A TRICYCLIC HETEROARYL GROUP” (CSPC Zhongqi Pharmaceutical Technology (Shijiazhuang) Co., …, priority 2021, published 2024).
Like-named read-outs stand apart in the source and are kept apart here.

Experiments:
[1] = system: MRL/lpr lupus erythematosus model mice; assay type: in vivo; design: key to Kidney IHC (IgG) pathological score, bilateral kidneys: product score; 0 negative, 1-3 low, 4-8 medium, 9-12 high; conditions: for Area under the urine protein curve: 16 weeks; for Kidney HE pathological score of both kidneys, Activity index / Kidney HE pathological score of both kidneys, Chronicity index / Kidney HE pathological score of both kidneys, Tubulointerstitial lesions / Kidney IHC (IgG) pathological score, bilateral kidneys / Skin HE pathological score / Total kidney weight / Total kidney weight/body weight %: after 17 weeks of treatment; for IL-6 concentration in serum (ELISA) / Spleen weight / Spleen weight/body weight % / TNF-alpha concentration in serum (ELISA) / Total lymph node weight / Total lymph node weight/body weight %: end of the test
Protocol: • female MRL/lpr mice aged 4 weeks, number: 50; • female C57BL/6 mice aged 4 weeks, number: 10.
According to the concentration of the serum anti-ds-DNA antibody, female MRL/lpr mice were randomly divided into five groups: model group: solvent (aqueous solution containing 0.4% Tween 80 and 0.5% methylcellulose) 10 mL/kg BID, positive control group: prednisone 6 mg/kg QD, compound (I) 20, 40 and 60 mg/kg BID groups, the administration volumes respectively: 10 mL/kg. In addition, female C57BL/6 mice served as the normal control group. The animals in the Compound (I) group and the model group were administrated with the medicament or the solvent by gavage twice a day starting from the beginning of five weeks of age with an interval of 8 hours between two administrations; prednisone was administered to the animals by gavage once a day from the beginning of five weeks of age; the administration was totally performed for 17 weeks.
Two mice in the model group died at 15 and 16 weeks of administration, respectively, and 8 mice remained at the end of the test; one mouse in the compound (I) 20 mg/kg bid group died in the later period of the 16th week of administration, and 9 mice remained at the end of the test; and no death of mice occurred in other groups.
The skin destructions on the face, ears and back of mice were observed and scored once a week for 17 times totally.
Scoring system: 1) red swelling and bleeding of the skin; 2) the extent of hair loss and skin dryness; 3) edema; 4) excoriation/corrosion; 5) lichenoid sclerotic plaque and other symptoms. The score of each item was as follows: normal=0 points; slight=1 point; moderate=2 points; severe=3 points. The severity of skin destruction was determined according to the total score of each evaluated symptom. […]
The lymph nodes of MRL/lpr mice were scored once a week for a total of 17 times during the test.
According to the lymph node diameter (cm), the score values were 0-6 points: • 0 point: normal; • 1 point: small (the diameter at one location of points on both sides was less than 1 cm); • 2 points: small (the diameters at two location of points on both sides were less than 1 cm); • 3 points: small (the diameters at three location of points on both sides were less than 1 cm); • 4 points: large (the diameter at one location of points on both sides was larger than 1 cm, the diameters at the other two location of points on both sides were less than 1 cm); • 5 points: large (the diameters at two location of points on both sides were larger than 1 cm, and the diameter at the other location of points on both sides was less than 1 cm); • 6 points: large (the diameters at three location of points on both sides were greater than 1 cm). […]
Kidney HE scoring criteria: […]
During the test, the concentration of serum anti-ds-DNA antibody of mice were detected every 4 weeks for 16 weeks.
At the end of the test, the serum cytokine levels of mice were detected by ELISA. […] See Table 25 and FIG. 17 for details.

in vivo = experiment: in vivo; design: species or system SD rats; conditions: SD, rat, po
Protocol: According to the general toxicology study in accordance with the NMPA “Good Laboratory Practice for Non-clinical Laboratory Studies” and FDA GLP specification (21CFR Part 58), and in line with the requirements of International Conference on Harmonization of Technical Requirements for Registration of Pharmaceuticals for Human Use (ICH) and the NMPA relevant guidelines, the toxicology study on Compound (I) was carried out to provide safety data support for the use of Compound (I) in clinical patients. The administration mode and the experimental results were as follows: […]

NC(=O)c1cnc(Nc2ccc3c(c2)OC[C@H]2CN(S(=O)(=O)C4CC4)CCN32)nc1NC1CC1 [Compound (I), (R)-4-(cyclopropylamino)-2-((3-(cyclopropylsulfonyl)-1,2,3,4,4a,5-hexahydrobenzo[b]pyrazolo[1,2-d][1,4]oxazin-8-yl)amino)pyrimidine-5-arboxamide]
Area under the urine protein curve ([1]; 20 mg/kg BID): 5646.42 ± 587.29 wk*mg/L
Kidney HE pathological score of both kidneys, Activity index ([1]; 20 mg/kg BID): 5.20 ± 0.73
Kidney HE pathological score of both kidneys, Chronicity index ([1]; 20 mg/kg BID): 7.00 ± 0.54
Kidney HE pathological score of both kidneys, Tubulointerstitial lesions ([1]; 20 mg/kg BID): 13.50 ± 0.52
Kidney IHC (IgG) pathological score, bilateral kidneys ([1]; 20 mg/kg BID): 8.90 ± 0.72
Skin HE pathological score ([1]; 20 mg/kg BID): 3.56 ± 0.44
Total kidney weight ([1]; 20 mg/kg BID): 0.4146 ± 0.02 g
Total kidney weight/body weight % ([1]; 20 mg/kg BID): 1.1855 ± 0.05%
IL-6 concentration in serum (ELISA) ([1]; 20 mg/kg BID): 52.38 ± 5.29 pg/mL
Spleen weight ([1]; 20 mg/kg BID): 0.4658 ± 0.04 g
Spleen weight/body weight % ([1]; 20 mg/kg BID): 1.3336 ± 0.11 %
TNF-alpha concentration in serum (ELISA) ([1]; 20 mg/kg BID): 48.03 ± 4.12 pg/mL
Total lymph node weight ([1]; 20 mg/kg BID): 1.6823 ± 0.24 g
Total lymph node weight/body weight % ([1]; 20 mg/kg BID): 4.7396 ± 0.60%
Lymph node score ([1]; 20 mg/kg BID, week 0): 0.0 ± 0.00
Skin score (skin destruction) ([1]; 20 mg/kg BID, week 0): 0.0 ± 0.00
Skin score (skin destruction) ([1]; 20 mg/kg BID, week 4): 0.0 ± 0.00
Lymph node score ([1]; 20 mg/kg BID, week 6): 0.0 ± 0.00
Lymph node score ([1]; 20 mg/kg BID, week 7): 0.6 ± 0.22
Skin score (skin destruction) ([1]; 20 mg/kg BID, week 8): 0.0 ± 0.00
Lymph node score ([1]; 20 mg/kg BID, week 9): 2.0 ± 0.26
Lymph node score ([1]; 20 mg/kg BID, week 11): 2.8 ± 0.29
Lymph node score ([1]; 20 mg/kg BID, week 12): 3.0 ± 0.21
Skin score (skin destruction) ([1]; 20 mg/kg BID, week 12): 0.0 ± 0.00
Skin score (skin destruction) ([1]; 20 mg/kg BID, week 14): 0.2 ± 0.20
Skin score (skin destruction) ([1]; 20 mg/kg BID, week 16): 0.2 ± 0.13
Lymph node score ([1]; 20 mg/kg BID, week 17): 3.6 ± 0.24
Skin score (skin destruction) ([1]; 20 mg/kg BID, week 17): 0.2 ± 0.15
Area under the urine protein curve ([1]; 40 mg/kg BID): 3851.50 ± 340.32 wk*mg/L
Kidney HE pathological score of both kidneys, Activity index ([1]; 40 mg/kg BID): 4.00 ± 0.42
Kidney HE pathological score of both kidneys, Chronicity index ([1]; 40 mg/kg BID): 7.60 ± 0.50
Kidney HE pathological score of both kidneys, Tubulointerstitial lesions ([1]; 40 mg/kg BID): 12.30 ± 1.03
Kidney IHC (IgG) pathological score, bilateral kidneys ([1]; 40 mg/kg BID): 7.40 ± 0.56
Skin HE pathological score ([1]; 40 mg/kg BID): 3.60 ± 0.37
Total kidney weight ([1]; 40 mg/kg BID): 0.3704 ± 0.01 g
Total kidney weight/body weight % ([1]; 40 mg/kg BID): 1.0997 ± 0.05%
IL-6 concentration in serum (ELISA) ([1]; 40 mg/kg BID): 63.17 ± 12.60 pg/mL
Spleen weight ([1]; 40 mg/kg BID): 0.3184 ± 0.03 g
Spleen weight/body weight % ([1]; 40 mg/kg BID): 0.9485 ± 0.09 %
TNF-alpha concentration in serum (ELISA) ([1]; 40 mg/kg BID): 32.29 ± 4.62 pg/mL
Total lymph node weight ([1]; 40 mg/kg BID): 0.7319 ± 0.12 g
Total lymph node weight/body weight % ([1]; 40 mg/kg BID): 2.1603 ± 0.35 %
Concentration of serum anti-ds-DNA antibody ([1]; 40 mg/kg BID, week 0): 3.32 ± 0.39 µg/mL
Lymph node score ([1]; 40 mg/kg BID, week 0): 0.0 ± 0.00
Skin score (skin destruction) ([1]; 40 mg/kg BID, week 0): 0.0 ± 0.00
Concentration of serum anti-ds-DNA antibody ([1]; 40 mg/kg BID, week 4): 346.06 ± 35.04 µg/mL
Skin score (skin destruction) ([1]; 40 mg/kg BID, week 4): 0.0 ± 0.00
Lymph node score ([1]; 40 mg/kg BID, week 6): 0.0 ± 0.00
Lymph node score ([1]; 40 mg/kg BID, week 7): 0.3 ± 0.15
Concentration of serum anti-ds-DNA antibody ([1]; 40 mg/kg BID, week 8): 885.04 ± 96.38 µg/mL
Skin score (skin destruction) ([1]; 40 mg/kg BID, week 8): 0.0 ± 0.00
Lymph node score ([1]; 40 mg/kg BID, week 9): 0.7 ± 0.26
Lymph node score ([1]; 40 mg/kg BID, week 11): 0.9 ± 0.23
Concentration of serum anti-ds-DNA antibody ([1]; 40 mg/kg BID, week 12): 1390.83 ± 266.11 µg/mL
Lymph node score ([1]; 40 mg/kg BID, week 12): 1.2 ± 0.25
Skin score (skin destruction) ([1]; 40 mg/kg BID, week 12): 0.0 ± 0.00
Skin score (skin destruction) ([1]; 40 mg/kg BID, week 14): 0.0 ± 0.00
Concentration of serum anti-ds-DNA antibody ([1]; 40 mg/kg BID, week 16): 1198.59 ± 86.64 µg/mL
Skin score (skin destruction) ([1]; 40 mg/kg BID, week 16): 0.0 ± 0.00
Lymph node score ([1]; 40 mg/kg BID, week 17): 1.5 ± 0.34
Skin score (skin destruction) ([1]; 40 mg/kg BID, week 17): 0.0 ± 0.00
Area under the urine protein curve ([1]; 60 mg/kg BID): 4138.70 ± 1048.57 wk*mg/L
Kidney HE pathological score of both kidneys, Activity index ([1]; 60 mg/kg BID): 3.90 ± 0.75
Kidney HE pathological score of both kidneys, Chronicity index ([1]; 60 mg/kg BID): 6.00 ± 0.75
Kidney HE pathological score of both kidneys, Tubulointerstitial lesions ([1]; 60 mg/kg BID): 8.50 ± 0.91
Kidney IHC (IgG) pathological score, bilateral kidneys ([1]; 60 mg/kg BID): 6.90 ± 0.28
Skin HE pathological score ([1]; 60 mg/kg BID): 2.60 ± 0.37
Total kidney weight ([1]; 60 mg/kg BID): 0.3639 ± 0.02 g
Total kidney weight/body weight % ([1]; 60 mg/kg BID): 1.1424 ± 0.07%
IL-6 concentration in serum (ELISA) ([1]; 60 mg/kg BID): 35.99 ± 7.36 pg/mL
Spleen weight ([1]; 60 mg/kg BID): 0.2805 ± 0.03 g
Spleen weight/body weight % ([1]; 60 mg/kg BID): 0.8892 ± 0.10 %
TNF-alpha concentration in serum (ELISA) ([1]; 60 mg/kg BID): 30.61 ± 4.72 pg/mL
Total lymph node weight ([1]; 60 mg/kg BID): 0.5680 ± 0.08 g
Total lymph node weight/body weight % ([1]; 60 mg/kg BID): 1.7879 ± 0.26 %
Concentration of serum anti-ds-DNA antibody ([1]; 60 mg/kg BID, week 0): 3.33 ± 0.42 µg/mL
Lymph node score ([1]; 60 mg/kg BID, week 0): 0.0 ± 0.00
Skin score (skin destruction) ([1]; 60 mg/kg BID, week 0): 0.0 ± 0.00
Concentration of serum anti-ds-DNA antibody ([1]; 60 mg/kg BID, week 4): 249.26 ± 24.12 µg/mL
Skin score (skin destruction) ([1]; 60 mg/kg BID, week 4): 0.0 ± 0.00
Lymph node score ([1]; 60 mg/kg BID, week 6): 0.0 ± 0.00
Lymph node score ([1]; 60 mg/kg BID, week 7): 0.1 ± 0.10
Concentration of serum anti-ds-DNA antibody ([1]; 60 mg/kg BID, week 8): 806.75 ± 110.22 µg/mL
Skin score (skin destruction) ([1]; 60 mg/kg BID, week 8): 0.0 ± 0.00
Lymph node score ([1]; 60 mg/kg BID, week 9): 0.3 ± 0.15
Lymph node score ([1]; 60 mg/kg BID, week 11): 0.4 ± 0.16
Concentration of serum anti-ds-DNA antibody ([1]; 60 mg/kg BID, week 12): 1168.19 ± 113.75 µg/mL
Lymph node score ([1]; 60 mg/kg BID, week 12): 0.5 ± 0.22
Skin score (skin destruction) ([1]; 60 mg/kg BID, week 12): 0.0 ± 0.00
Skin score (skin destruction) ([1]; 60 mg/kg BID, week 14): 0.0 ± 0.00
Concentration of serum anti-ds-DNA antibody ([1]; 60 mg/kg BID, week 16): 1272.27 ± 50.19 µg/mL
Skin score (skin destruction) ([1]; 60 mg/kg BID, week 16): 0.0 ± 0.00
Lymph node score ([1]; 60 mg/kg BID, week 17): 1.0 ± 0.26
Skin score (skin destruction) ([1]; 60 mg/kg BID, week 17): 0.0 ± 0.00
Mice died during the test ([1]; mouse, in vivo): one
NOAEL (in vivo): 2000 mg/kg
